Common to all, as to assay type: in vivo, rat
For test [1], the system named is apoptosis in cortex and hippocampus. Briefly: TUNEL/DAPI/C1q staining of brain sections 48 hours after injury. The protocol: To assess the effect of PIC1 on cell death at 48 hours after the initial injury, TUNEL staining, alone or in combination with C1q staining, was utilized to measure DNA strand breaks that are generated during apoptosis.
(§1) TUNEL/C1q staining was performed as follows. Five (5) μm paraffin-embedded coronal brain sections on slides were incubated (1 hour; 60° C.), deparaffinized with xylene, and rehydrated with ethanol (100%, 95%, 70%; RT). Endogenous peroxidase activity was blocked (0.3% H2O2/MeOH; 10 minutes; RT), and heat induced antigen retrieval was performed (when indicated) using 10 mM sodium citrate, pH 6.0. 10% normal serum (from the same species as the host of the secondary antibody) was used to block and to dilute antibodies. Samples were washed twice for 10 min each, in PBST between each step.
For C1q/TUNEL co-staining, tissue was incubated with the TUNEL solution according to manufacturer's instructions (In Situ Cell Death Detection Kit, Roche Molecular Diagnostics, Pleasanton, Calif.), followed by blocking with NGS for one hour at room temperature. C1q was probed using 1:300 mouse anti-C1q (Abcam) in NGS for 30 min at 37° C., followed by incubation in 1:500 goat anti-mouse (Abcam) AF 568 for 30 min at 37° C. All samples were mounted with aqueous mounting media comprising 4′,6-diamidino-2-phenylindole (Vectashield antifade mounting medium with DAPI, Vector Laboratories, Burlingame, Calif.) and coverslipped.
Fluorescent images of the cortex were taken at 20× magnification using a digital camera (DP70, Olympus Center, Valley Forge, Pa.), mounted on a BX50 Olympus microscope. Adobe Photoshop CS5 was used to merge immunofluorescence images, and Image J (National Institutes of Health) was used for analysis.

Test [2] concerns TMEM119 (microglia). In words: TMEM119 and Iba1/TMEM119 staining of cortex. Conditions: 48 hours after injury. The protocol: After blocking for one hour at room temperature, tissues were incubated with 1:300 goat anti-Iba1 (Abcam), 1:250 goat anti-GFAP (Abcam), 1:500 chicken anti-NeuN (Millipore, Billerica, Mass.), or 1:100 mouse anti-NeuN (Millipore) in host appropriate blocking serum overnight at 4° C. Primary antibodies were probed with 1:500 donkey anti-goat (Abcam), goat anti-chicken (Abcam), or goat anti-mouse (Abcam) AF 488 or 568 in appropriate blocking serum for one hour at room temperature. Tissues were blocked a second time with NGS for one hour at room temperature. Samples were then probed with 1:300 mouse anti-C1q (Abcam), 1:300 rabbit anti-C9, 1:50 rabbit anti-MPO (Abcam), 1:200 rabbit anti-TMEM (Novus Bio, Centennial, Colo.), 1:100 rabbit anti-C3aR (Bioss), 1:100 Mouse anti-C5aR (Hycult), or 1:200 chicken anti-C3/C3a (Abcam) in NGS overnight at 4° C. and then with 1:500 goat anti-mouse, rabbit, or chicken (Abcam) AF 488 or 568 in NGS for one hour at room temperature.
Accordingly, a more specific microglial marker was used to differentiate microglia from infiltrated peripheral macrophages. TMEM119 is a reliable microglial marker that discriminates resident microglia from blood-derived macrophages in the brain [21].

The nature of test [3]: T-maze test. Conditions: six weeks after surgery, between study groups, pooled and separated genders. The source says: No other preparation was needed. The thawed tubes were kept on ice until dosing.
The T-maze test apparatus was plastic with two 45 cm long arms, which extend at right-angles from a 57 cm long alley (see www.noldus.com/animal-behavior-research/t-maze). The arms have a width of 10 cm and were surrounded by 10 cm high walls. The test consists of two trials at an interval of five minutes, during which time the animals are returned to their home cages. During an eight minute acquisition trial, one of the short arms was closed. In a three minute test trial, rats had access to both arms and to the alley. Time spent in each of the arms and in the long alley was assessed. Cognitively healthy rats tended to spend more time in the novel arm than in the familiar one or in the alley.
In an eight minute acquisition trial, while the novel arm is blocked, each rat was lowered to the beginning of the alley arm, facing the wall, and allowed to freely explore the maze's arms (start arm (alley arm), center and familiar arm), while the novel arm was inaccessible. […]
During the three minute test trial, with all three arms accessible (the wall of the novel arm was removed), each rat was allowed to freely explore the whole maze. Time spent in each of the arms was recorded using EthoVision XT 11 automated tracking system (Noldus Information Technology).

Test [4] is described as follows: Beam walk assay, fine motor coordination and balance. Conditions: versus NT animals. The protocol: Fine motor coordination and balance was assessed by a beam walk assay, which was performed as follows. Gross motor function and balance was evaluated using the beam walking test 6 weeks after HIE. Beams of varying widths (19 mm, 13 mm, or 6 mm) were used that led to a dark escape box. Each beam was 90 cm long and elevated 60 cm from the ground. The goal of this test is for the rat to stay upright and walk across elevated narrow beams of decreasing width (0.75 and 0.25 inches, or 19 mm and 6 mm) to a safe platform.
Rats were placed on a loading platform on the proximal end of the apparatus, and instinctively walked towards the box when placed on a beam. Rats were trained on each beam prior to the test. On the test day, rats were placed on the loading platform, and videos were recorded. Rats were given up to 5 attempts to cross each beam. Failures, i.e., inability to cross along with right and left foot slips, were analyzed by an investigator blinded to the treatment

The test system of test [5] is C3. In words: Immunofluorescence quantification of C3 in brain. Particulars: ipsilateral cortex and hippocampus, 48 hours, versus NT, P<0.05. As for the experimental part:
as §1
After blocking for one hour at room temperature, tissues were incubated with 1:300 goat anti-Iba1 (Abcam), 1:250 goat anti-GFAP (Abcam), 1:500 chicken anti-NeuN (Millipore, Billerica, Mass.), or 1:100 mouse anti-NeuN (Millipore) in host appropriate blocking serum overnight at 4° C. Primary antibodies were probed with 1:500 donkey anti-goat (Abcam), goat anti-chicken (Abcam), or goat anti-mouse (Abcam) AF 488 or 568 in appropriate blocking serum for one hour at room temperature. Tissues were blocked a second time with NGS for one hour at room temperature. […]

Here are results for one substance from patent US20220249596A1, “PIC1 PEPTIDE COMPOSITIONS AND METHODS OF USE THEREOF FOR TREATMENT OF HYPOXIC ISCHEMIC ENCEPHALOPATHY” (REALTA HOLDINGS, LLC, priority 2019, published 2022).

Entries after “also recorded” stand apart in the source; their conditions may differ. No end group written: not given here.

Regarding “IALILEPICCQERAA-dPEG24 (cysteine pairing not given here) [PIC1]”, the “TUNEL positive cells (DNA fragmentation), cortex and hippocampus” value in test [1] (48 hours, versus NT (P=0.02) and HT (P=0.04)) was “significantly fewer”. The cell count result in test [1] (PIC1- versus HT-treated animals) is “no significant difference”. Further, in test [1] (versus NT (P=0.02) and HT (P=0.04)), the nucleus size entry was “significantly improved”. Besides, the “nuclear density by DAPI staining” value in test [1] (versus NT animals, P=0.01) is recorded as “markedly improved”. Besides, the C1q/TUNEL co-localization entry in test [1] (versus NT animals, ipsilateral cortex) was “qualitative reduction”. The “cell counts (stained nuclei)” value in test [1] (versus NT, P=0.03) is on record as “significantly improved”. For the same substance, the “combined Iba1/TMEM119 staining in the cortex” value in test [2] (versus NT and HT animals) was “almost two-fold decrease”. In test [2] (versus NT brains), the “TMEM119 expression in the cortex” value is recorded as “almost a three-fold decrease”. Also, the “T-maze: time spent in novel and familiar arms, alley, center” value in test [3] is on record as “no significant differences; also recorded: No statistical significances”. In addition, the beam walk performance result in test [4] (0.25 inch beam) and in test [4] (0.75 inch beam) was “performed significantly better” throughout. Besides, the C3 expression result in test [5] was “decreased expression”.
